Consider 22 molecules from ChEMBL document CHEMBL1156016, “Discovery of potent and selective histone deacetylase inhibitors via focused combinatorial libraries of cyclic alpha3beta-tetrapeptides” (J Med Chem, 2009).

The target of assay [1] is Histone deacetylase. The format is cell-based, Homo sapiens. The following applies: hela.
Description: Inhibition of HDAC in human HeLa cell cytosolic extract after 30 mins by fluorimetric assay
Assay [2] has as its target Histone deacetylase 1 (Homo sapiens, UniProt Q13547).
Description: Inhibition of human recombinant HDAC1 after 30 mins by fluorimetric assay
The target of assay [3] is Histone deacetylase 3 (Homo sapiens, UniProt O15379).
Description: Inhibition of human recombinant HDAC3 after 30 mins by fluorimetric assay
Assay [4] has as its target T1, Histone deacetylase 8 (Homo sapiens, UniProt Q9BY41).
T1 sequence (Q9BY41 whole entry): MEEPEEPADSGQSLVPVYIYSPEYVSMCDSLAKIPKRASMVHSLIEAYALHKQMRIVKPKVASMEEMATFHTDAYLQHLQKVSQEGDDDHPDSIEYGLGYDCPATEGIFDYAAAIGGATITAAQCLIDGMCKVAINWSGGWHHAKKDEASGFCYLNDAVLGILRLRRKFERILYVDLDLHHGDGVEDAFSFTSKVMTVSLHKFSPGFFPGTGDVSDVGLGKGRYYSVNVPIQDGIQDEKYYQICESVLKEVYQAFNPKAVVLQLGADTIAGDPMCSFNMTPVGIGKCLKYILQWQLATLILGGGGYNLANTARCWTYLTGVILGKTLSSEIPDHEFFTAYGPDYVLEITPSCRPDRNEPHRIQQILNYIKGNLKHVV
Description: Inhibition of human recombinant HDAC8 after 30 mins by fluorimetric assay

For assay [5], the target named is T2, Protein deacetylase HDAC6 (Homo sapiens, UniProt Q9UBN7).
T2 sequence (Q9UBN7 whole entry): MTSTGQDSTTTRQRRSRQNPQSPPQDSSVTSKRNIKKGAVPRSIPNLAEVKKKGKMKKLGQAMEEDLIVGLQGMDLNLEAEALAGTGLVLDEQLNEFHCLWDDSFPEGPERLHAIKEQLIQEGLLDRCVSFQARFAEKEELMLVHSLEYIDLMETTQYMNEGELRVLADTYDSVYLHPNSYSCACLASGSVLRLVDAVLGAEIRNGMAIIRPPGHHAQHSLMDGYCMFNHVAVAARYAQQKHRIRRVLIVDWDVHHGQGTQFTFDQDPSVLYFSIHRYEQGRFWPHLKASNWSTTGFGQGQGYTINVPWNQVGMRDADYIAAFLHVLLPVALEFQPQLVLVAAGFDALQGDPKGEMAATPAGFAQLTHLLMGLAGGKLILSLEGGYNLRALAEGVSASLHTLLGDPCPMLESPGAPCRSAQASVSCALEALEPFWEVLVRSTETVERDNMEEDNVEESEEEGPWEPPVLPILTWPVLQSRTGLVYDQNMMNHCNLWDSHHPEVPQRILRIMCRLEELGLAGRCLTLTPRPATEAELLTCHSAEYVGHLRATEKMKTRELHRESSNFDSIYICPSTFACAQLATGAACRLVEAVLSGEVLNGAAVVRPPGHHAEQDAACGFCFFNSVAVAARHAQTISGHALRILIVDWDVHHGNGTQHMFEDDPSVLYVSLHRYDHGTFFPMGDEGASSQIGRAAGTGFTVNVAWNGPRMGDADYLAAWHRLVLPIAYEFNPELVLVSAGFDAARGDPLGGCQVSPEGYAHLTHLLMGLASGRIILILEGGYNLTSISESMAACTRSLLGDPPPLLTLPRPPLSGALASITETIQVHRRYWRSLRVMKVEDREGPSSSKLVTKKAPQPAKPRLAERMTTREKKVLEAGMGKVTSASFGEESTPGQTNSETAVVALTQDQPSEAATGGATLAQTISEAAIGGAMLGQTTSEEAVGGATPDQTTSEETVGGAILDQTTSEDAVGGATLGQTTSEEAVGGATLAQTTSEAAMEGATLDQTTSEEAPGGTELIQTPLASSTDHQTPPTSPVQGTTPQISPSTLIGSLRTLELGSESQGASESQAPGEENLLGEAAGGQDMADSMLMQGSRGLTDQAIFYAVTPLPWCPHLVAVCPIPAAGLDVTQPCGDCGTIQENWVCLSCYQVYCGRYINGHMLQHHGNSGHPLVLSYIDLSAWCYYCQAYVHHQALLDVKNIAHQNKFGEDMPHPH
Description: Inhibition of human recombinant HDAC6 after 30 mins by fluorimetric assay

In assay [6] the test system is Jurkat. The experiment in a line: cells. The following applies: Homo sapiens, 72 h.
Assay [7] deals with HeLa. The experiment in a line: cells. The following applies: Homo sapiens, 72 h.
Assay [8] relates to MCF7. Kind of assay: cells. The following applies: Homo sapiens, MCF7, 72 h.
Assay [9] deals with K562. Kind of assay: cells. The following applies: Homo sapiens, K562, 72 h.
A short description of assay [10]: cells. The following applies: Homo sapiens, KYO1, 72 h.
Assay [11] has as its target Histone deacetylase. In kind it is cell-based, Homo sapiens. The following applies: hela. This is another data set of the same source.
Description: Inhibition of HDAC in human HeLa cell nuclear extract after 30 mins by fluorimetric assay
Assay [12] addresses Histone deacetylase (Homo sapiens) (UniProt Q13547+O15379+Q9UBN7+Q92769+Q9UQL6+Q8WUI4+Q9BY41+Q96DB2+P56524+Q9UKV0+Q969S8). The experiment in a line: Inhibition of class 1 HDAC in human Jurkat cells assessed as acetylated histone H3 level at 0.2 to 20 uM after 24 hrs by Western blotting. The format is cell-based. On the technique in general: In western blotting, separated proteins are transferred to a membrane and probed.

For assay [13], the target named is T3, Protein deacetylase HDAC6 (Homo sapiens) (UniProt Q9UBN7).
T3 sequence (whole entry): T2 sequence (Q9UBN7 whole entry)
The experiment in a line: Inhibition of HDAC6 in human Jurkat cells assessed as acetylated alpha-tubulin level at 0.2 to 20 uM after 24 hrs by Western blotting. In kind it is cell-based.

Molecules are shown by their SMILES. Active and inactive are the calls of the source. The calls are words filed in the database; no cut-off is given here. Square brackets hold non-standard residues; d marks the D form. Peptide text beside a SMILES is read from it. * marks the point of attachment. Phe(F5) = N[C@@H](Cc1c(F)c(F)c(F)c(F)c1F)C(=O)O; β3hW = N[C@H](CC(=O)O)Cc1c[nH]c2ccccc12; 1Nal = N[C@@H](Cc1cccc2ccccc12)C(=O)O; β3hY = N[C@H](CC(=O)O)Cc1ccc(O)cc1; Asu = N[C@@H](CCCCCC(=O)O)C(=O)O; β3hL = CC(C)C[C@H](N)CC(=O)O; hLys = NCCCCC[C@H](N)C(=O)O; Carboxymethyl = O=C(O)C*; CH2CH2COOH = O=C(O)CC*; Aib = CC(C)(N)C(=O)O; X1 = CCC(=O)CC*; NHOH = ON* Where only a bound is given, the exact number is not on record here.

Histone deacetylase 3, sequence (O15379 whole entry): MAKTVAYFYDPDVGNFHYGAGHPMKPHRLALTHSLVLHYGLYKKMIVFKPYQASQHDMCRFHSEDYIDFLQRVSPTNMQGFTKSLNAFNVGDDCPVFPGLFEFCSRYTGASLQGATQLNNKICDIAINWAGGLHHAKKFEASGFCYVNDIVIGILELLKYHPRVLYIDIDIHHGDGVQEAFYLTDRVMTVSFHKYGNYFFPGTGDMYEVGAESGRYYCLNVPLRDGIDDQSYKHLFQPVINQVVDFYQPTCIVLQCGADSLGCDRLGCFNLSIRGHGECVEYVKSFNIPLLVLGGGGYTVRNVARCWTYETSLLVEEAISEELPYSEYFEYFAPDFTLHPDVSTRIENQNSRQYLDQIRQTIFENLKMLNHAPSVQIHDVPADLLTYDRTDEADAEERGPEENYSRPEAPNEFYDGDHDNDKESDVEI
Histone deacetylase 1, sequence (Q13547 whole entry): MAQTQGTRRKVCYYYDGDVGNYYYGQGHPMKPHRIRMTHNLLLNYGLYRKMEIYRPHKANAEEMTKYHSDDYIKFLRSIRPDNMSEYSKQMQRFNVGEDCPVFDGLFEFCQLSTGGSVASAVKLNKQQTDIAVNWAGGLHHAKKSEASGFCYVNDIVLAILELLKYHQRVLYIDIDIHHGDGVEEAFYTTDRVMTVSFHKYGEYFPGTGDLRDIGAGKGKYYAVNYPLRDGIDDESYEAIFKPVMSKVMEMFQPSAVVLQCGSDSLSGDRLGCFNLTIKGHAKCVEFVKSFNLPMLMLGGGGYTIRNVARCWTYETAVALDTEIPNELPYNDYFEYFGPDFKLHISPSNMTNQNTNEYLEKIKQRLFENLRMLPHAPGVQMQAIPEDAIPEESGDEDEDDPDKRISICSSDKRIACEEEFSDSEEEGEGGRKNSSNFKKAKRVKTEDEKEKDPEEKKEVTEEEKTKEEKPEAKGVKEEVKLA

Regarding `CC(C)C[C@H]1CC(=O)N[C@@H](C)C(=O)N[C@@H](CCCCCC(=O)O)C(=O)N[C@@H](Cc2ccccc2)C(=O)N1` (cyclo(A[Asu]F[β3hL])), in [1], the concentration for half-maximal inhibition (IC50) came to 0.541 µM.
For `CC(C)C[C@H]1CC(=O)N[C@@H](C)C(=O)N[C@@H](CSCC(=O)O)C(=O)N[C@@H](Cc2c[nH]c3ccccc23)C(=O)N1` (cyclo(C(Carboxymethyl)W[β3hL]A)), the IC50 is more than 10 µM in [2], more than 10 µM in assay [3], 9.7 µM in assay [4] and more than 10 µM in assay [5].
`CC(C)C[C@H]1CC(=O)N[C@@H](C)C(=O)N[C@@H](CCCCCC(=O)NO)C(=O)N[C@@H](Cc2c[nH]c3ccccc23)C(=O)N1` (cyclo([Asu](NHOH)W[β3hL]A)): in assay [6], growth was halved (GI50) at 1.7 µM.
Consider `CC(C)C[C@H]1CC(=O)N[C@@H](CCCNC(=N)N)C(=O)N[C@@H](CCCCCC(=O)O)C(=O)N[C@@H](Cc2cccc3ccccc23)C(=O)N1` (cyclo([Asu][1Nal][β3hL]R)), for which the half-maximal inhibitory concentration (IC50) in assay [2] is 0.178 µM; in assay [3] it was 0.262 µM; in assay [4] it was 0.607 µM; in assay [5], 1.4 µM.
For `CCC(=O)CCSC[C@@H]1NC(=O)[C@H](C)NC(=O)C[C@H](CC(C)C)NC(=O)[C@H](Cc2c[nH]c3ccccc23)NC1=O` (cyclo(AC(X1)W[β3hL])) the same measures were more than 10 µM, more than 10 µM, more than 10 µM and more than 10 µM.
On to `CCC(=O)CCCCC[C@@H]1NC(=O)[C@H](CCCCNC(C)=O)NC(=O)C[C@H](CC(C)C)NC(=O)[C@H](Cc2c[nH]c3ccccc23)NC1=O`, for which the GI50 in assay [7], in assay [8] and in assay [6] was more than 20 µM in each case.
`O=C(O)CCCCC[C@@H]1NC(=O)[C@H]2CCCCN2C(=O)C[C@H](Cc2ccccc2)NC(=O)[C@H](Cc2c[nH]c3ccccc23)NC1=O`: in assay [1], the 50% inhibitory concentration (IC50) was found to be 0.791 µM.
Take `CC(C)C[C@H]1CC(=O)N[C@@H](Cc2ccccc2)C(=O)N[C@@H](CCCCCC(=O)NO)C(=O)N[C@@H](Cc2c[nH]c3ccccc23)C(=O)N1` (cyclo([Asu](NHOH)W[β3hL]F)): the half-maximal inhibitory concentration (IC50) in assay [3] was determined as 0.031 µM; in assay [5], 0.07 µM. Also, the figures for the GI50 in assay [6], in assay [9] and in assay [10] were 1.3 µM, 1.9 µM and 1.9 µM, respectively.
For `CC(=O)NCCCCC[C@@H]1NC(=O)C[C@H](CC(C)C)NC(=O)[C@H](Cc2cccc3ccccc23)NC(=O)[C@H](CCCCCC(=O)O)NC1=O` (cyclo([1Nal][β3hL][hLys](Ac)[Asu])), the IC50 in [11] is 0.017 µM; in assay [2], 0.008 µM; in assay [3], 0.032 µM; in assay [5] it was more than 10 µM. The 50% growth inhibitory concentration (GI50) in assay [7] amounted to 18 µM; in [6] it was 0.3 µM; in assay [9] it was 30 µM; in assay [10] it was 43 µM.
As to `CC(C)C[C@H]1CC(=O)N[C@@H](C)C(=O)N[C@@H](CSCCC(=O)O)C(=O)N[C@@H](Cc2c[nH]c3ccccc23)C(=O)N1` (cyclo(C(CH2CH2COOH)W[β3hL]A)), the IC50 in assay [2] was 4.84 µM; in assay [3] it was 7.08 µM; in assay [4] it was 6.05 µM; in [5], more than 10 µM.
For `CC(C)C[C@H]1CC(=O)N[C@@H](C)C(=O)N[C@@H](CCCCCC(=O)O)C(=O)N[C@@H](Cc2cccc3ccccc23)C(=O)N1` (cyclo([Asu][1Nal][β3hL]A)), the IC50 is 0.205 µM in assay [11], 0.377 µM in assay [1], 0.2 µM in assay [2] and 0.99 µM in assay [3].
In the case of `CCC(=O)CCCCC[C@@H]1NC(=O)C[C@H](CC(C)C)NC(=O)[C@H](Cc2c[nH]c3ccccc23)NC(=O)[C@H](CCCCCC(=O)CC)NC1=O`, the IC50 in assay [2] is 0.15 µM; in assay [3], 0.26 µM; in assay [4], 1.4 µM; in assay [5] it was more than 10 µM.
For `N=C(N)NCCC[C@@H]1NC(=O)C[C@H](Cc2ccc(O)cc2)NC(=O)[C@H](CC(=O)O)NC(=O)[C@H](CCCCCC(=O)NO)NC1=O` (cyclo([Asu](NHOH)D[β3hY]R)), the outcome in assay [12] was inactive. Besides, the outcome in assay [13] was Active. The GI50 was 9 µM in assay [7], more than 20 µM in [8] and more than 20 µM in assay [6].
On to `O=C(O)CCCCC[C@@H]1NC(=O)[C@H](Cc2ccccc2)NC(=O)C[C@H](Cc2c[nH]c3ccccc23)NC(=O)[C@H](Cc2cccc3ccccc23)NC1=O` (cyclo([1Nal][β3hW]F[Asu])), for which the half-inhibitory concentration (IC50) in [11] worked out at 1.04 µM; in [1], 1.009 µM; in [2] it was 0.46 µM; in assay [3], 1.67 µM; in [5] it was 8 µM.
As to `CC[C@]1(O)C[C@@H]2CN(CCc3c([nH]c4ccccc34)[C@@](C(=O)OC)(c3cc4c(cc3OC)N(C)[C@H]3[C@@](O)(C(=O)OC)[C@H](OC(C)=O)[C@]5(CC)C=CCN6CC[C@]43[C@@H]65)C2)C1` [VINBLASTINE], the figures for the GI50 in [8] and in assay [10] were 10 µM and less than 0.1 µM, respectively.
Regarding `CC(=O)NCCCC[C@@H]1NC(=O)C[C@H](CC(C)C)NC(=O)[C@H](Cc2c[nH]c3ccccc23)NC(=O)[C@H](CSCCC(=O)O)NC1=O` (cyclo(C(CH2CH2COOH)W[β3hL]K(Ac))), the IC50 is more than 10 µM in assay [3], 7.04 µM in assay [4] and more than 10 µM in [5].
For the molecule `CC1(C)NC(=O)C[C@H](Cc2c[nH]c3ccccc23)NC(=O)[C@H](Cc2cccc3ccccc23)NC(=O)[C@H](CCCCCC(=O)O)NC1=O` (cyclo([1Nal][β3hW][Aib][Asu])), half-maximal inhibition in assay [5] (IC50) required 3.7 µM.
Same read-out and setting: as for `CC(=O)NCCCC[C@@H]1NC(=O)C[C@H](Cc2ccc(O)cc2)NC(=O)[C@H](Cc2cccc3ccccc23)NC(=O)[C@H](CCCCCC(=O)O)NC1=O` (cyclo([1Nal][β3hY]K(Ac)[Asu])), the figure is 4.4 µM.
As for `CCC(=O)CCCCC[C@@H]1NC(=O)[C@H](C)NC(=O)C[C@H](CC(C)C)NC(=O)[C@H](Cc2c[nH]c3ccccc23)NC1=O`, the values for the 50% growth inhibitory concentration (GI50) in assay [8] and in [9] were more than 20 µM and 2 µM, respectively.
For the molecule `N=C(N)NCCC[C@@H]1NC(=O)C[C@H](Cc2ccc(O)cc2)NC(=O)[C@H](Cc2cccc3ccccc23)NC(=O)[C@H](CCCCCC(=O)O)NC1=O` (cyclo([Asu][1Nal][β3hY]R)), in [4], the IC50 was determined as 1.4 µM.
The same measure, in the same setting: as for `CC(C)C[C@H]1CC(=O)NC(C)(C)C(=O)N[C@@H](CCCCCC(=O)O)C(=O)N[C@@H](Cc2cccc3ccccc23)C(=O)N1` (cyclo([1Nal][β3hL][Aib][Asu])), the figure is 0.87 µM.
Consider `O=C(O)CCCCC[C@@H]1NC(=O)[C@H](Cc2c(F)c(F)c(F)c(F)c2F)NC(=O)C[C@H](Cc2ccc(O)cc2)NC(=O)[C@H](Cc2cccc3ccccc23)NC1=O` (cyclo([1Nal][β3hY][Phe(F5)][Asu])), for which the half-inhibitory concentration (IC50) is 1 µM in assay [2], 6.7 µM in assay [4] and more than 10 µM in assay [5].

A word on the IC50: it is the concentration needed to halve the response being measured. A word on the GI50: it is the concentration at which growth is held to half of that of the control. A low value points to greater sensitivity of the cells.
